Reference: US20080219972A1, “Prostatic Acid Phosphatase (Pap) Materials and Methods of Use Thereof in the Prophylactic and Therapeutic Treatment of Prostate Cancer” (UNIVERSITY OF MARYLAND, BALTIMORE, priority 2005, published 2008)

System: CD4 T-cells from PBMC of HLA-DRB1*1501-positive GP patients and normal male donors
Assay: Human CD4 T-cell line responses to PAP polypeptides (IFN-γ ELISPOT, proliferation assay, IFN-γ ELISA)
Assay type: cell-based
Method: The PAP polypeptides identified above were tested in human cultures. CD4 T-cell lines, which were specific for polypeptide 15 or polypeptide 19, were established from PBMC of HLA-DRB1*1501-positive GP patients and normal male donors by repeated stimulations with the polypeptide 19. After two rounds of in vitro stimulation, T-cells were plated at 2×10^4 cells/well in 96-well, round-bottomed plates, and stimulated by irradiated autologous PBMC in the presence/absence of polypeptide 19 or control polypeptide 15.
No polypeptide-specific responses were detected in primary PBMC cultures by IFN-γ ELISPOT, proliferation assay, or IFN-γ ELISA. When CD4 T-cells were stimulated with polypeptide […], cells from three of five GP patients and three of four normal male donors responded to the specific peptide in secondary cultures.
The HLA restriction of the cell line was confirmed using an immortalized B-cell line derived from a patient with type II Bare Lymphocyte Syndrome (BLC cells) and engineered to express HLA-DRB1*1501.
A CD4 T-cell line, which was developed from patient Pr131 by repeated stimulation with polypeptide 19, recognized human and mouse homolog polypeptides.

## ESEEFLKRLHPYKSFLD TLS (ESEEFLKRLHPYKSFLDTLS; listed as Mus musculus) [mouse homolog, mouse polypeptide corresponding to human polypeptide 19, six amino acid substitutions]
Inferred from concentration range of response
  avidity relative to human polypeptide 19: higher avidity
Line developed by repeated stimulation with polypeptide 19
  recognition by Pr131 CD4 T-cell line raised with polypeptide 19: recognized
Seen in a broader range of concentration
  response of Pr131 CD4 T-cell line stimulated with irradiated autologous PBMC: strong response
